Laboratory results taken from patent US20260138961A1, “MODULATORS OF MITOCHONDRIAL DNA REPLICATION” (Pretzel Therapeutics, Inc., priority 2022, published 2026).

Biological target: T1, POLγ W748S + E1143G (Homo sapiens, UniProt P54098, E1143G/W748S)
T1 sequence (P54098 1-1239 W748S/E1143G): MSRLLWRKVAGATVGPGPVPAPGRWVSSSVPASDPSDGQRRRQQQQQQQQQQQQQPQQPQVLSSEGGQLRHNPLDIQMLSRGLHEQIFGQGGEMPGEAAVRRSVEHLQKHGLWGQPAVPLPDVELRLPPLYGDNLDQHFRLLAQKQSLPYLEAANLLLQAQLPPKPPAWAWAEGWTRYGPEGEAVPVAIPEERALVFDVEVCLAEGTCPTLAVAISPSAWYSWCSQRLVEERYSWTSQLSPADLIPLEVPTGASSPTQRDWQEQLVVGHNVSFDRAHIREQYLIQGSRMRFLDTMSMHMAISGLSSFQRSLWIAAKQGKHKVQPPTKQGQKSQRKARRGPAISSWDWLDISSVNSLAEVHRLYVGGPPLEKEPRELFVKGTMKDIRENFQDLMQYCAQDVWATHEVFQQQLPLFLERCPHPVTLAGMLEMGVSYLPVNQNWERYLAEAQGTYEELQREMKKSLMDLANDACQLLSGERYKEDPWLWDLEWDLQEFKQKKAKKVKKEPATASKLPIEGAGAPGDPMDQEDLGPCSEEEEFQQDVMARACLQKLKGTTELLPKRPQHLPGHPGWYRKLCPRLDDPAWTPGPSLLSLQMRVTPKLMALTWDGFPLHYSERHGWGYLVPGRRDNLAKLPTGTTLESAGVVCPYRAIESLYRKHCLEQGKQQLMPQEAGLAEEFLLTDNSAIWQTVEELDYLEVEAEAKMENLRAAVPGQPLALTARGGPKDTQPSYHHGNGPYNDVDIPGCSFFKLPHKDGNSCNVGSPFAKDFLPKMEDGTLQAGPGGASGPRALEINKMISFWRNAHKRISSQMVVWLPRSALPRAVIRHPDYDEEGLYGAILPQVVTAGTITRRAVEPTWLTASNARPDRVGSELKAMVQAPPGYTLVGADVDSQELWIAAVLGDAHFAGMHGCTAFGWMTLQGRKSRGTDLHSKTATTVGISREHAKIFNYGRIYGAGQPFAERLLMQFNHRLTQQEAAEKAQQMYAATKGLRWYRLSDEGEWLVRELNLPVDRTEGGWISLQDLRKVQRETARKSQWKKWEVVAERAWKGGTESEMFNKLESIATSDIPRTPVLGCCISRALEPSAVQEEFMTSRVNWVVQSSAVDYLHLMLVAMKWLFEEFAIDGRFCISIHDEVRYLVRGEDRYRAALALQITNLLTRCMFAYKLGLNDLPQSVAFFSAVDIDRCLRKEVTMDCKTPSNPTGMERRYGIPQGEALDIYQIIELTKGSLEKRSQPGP
T1 sequence (Q9UHN1 1-485 partner): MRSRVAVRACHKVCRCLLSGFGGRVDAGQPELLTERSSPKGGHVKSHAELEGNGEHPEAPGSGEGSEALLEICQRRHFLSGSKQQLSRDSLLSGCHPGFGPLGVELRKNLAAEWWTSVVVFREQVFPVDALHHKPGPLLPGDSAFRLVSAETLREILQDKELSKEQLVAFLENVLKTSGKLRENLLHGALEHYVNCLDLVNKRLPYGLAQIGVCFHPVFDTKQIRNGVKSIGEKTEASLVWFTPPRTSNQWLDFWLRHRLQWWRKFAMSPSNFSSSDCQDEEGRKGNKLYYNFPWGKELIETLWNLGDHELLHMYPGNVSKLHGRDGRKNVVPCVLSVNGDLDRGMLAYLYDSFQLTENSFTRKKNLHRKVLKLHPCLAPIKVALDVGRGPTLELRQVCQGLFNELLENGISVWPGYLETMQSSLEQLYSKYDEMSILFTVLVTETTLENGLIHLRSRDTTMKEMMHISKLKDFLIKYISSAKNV
Experiment: DNA polymerization assay, W748S + E1143G mutant
Type: biochemical
Conditions: stimulation of polymerase activity, primed M13mp18 ssDNA, 37° C. 2 hours
Method: DNA Polymerization Assay to Monitor Effects on Human Wildtype POLγ and Four Disease-Causing Mutant Variants of Human POLγ.
The ability of small molecules to stimulate the polymerase activity of POLγ was analyzed in a quantitative fluorescence SYBR Green I assay with fluorescence intensity (FI) readout.
In the presence of dNTPs, wild type human POLγ and mutant derivatives thereof were incubated with single-stranded, circular M13mp18 ssDNA hybridized to a short DNA oligonucleotide that functions as a primer for initiation of DNA synthesis. POLγ and mutant derivatives thereof will extend the primer and use the M13mp18 molecule as a template to synthesize long stretches of double-stranded DNA. SYBR Green I, which is a double-stranded DNA-binding dye, was used to quantify formation of double-stranded DNA in the reaction. When bound to double-stranded DNA, SYBR Green I fluorescence increases by up to 100-fold.
The assay was performed in the 384-well plate format. Upon addition of compounds, changes in double-stranded DNA synthesis activity can be monitored by following effects on fluorescent intensity.
The reactions also contained the accessory POLγB subunit, and the human mitochondrial single-stranded DNA binding protein (mtSSB).
The DNA template mixture used in the assay contained 0.5 nM primed M13 mp18 ssDNA, 400 nM mtSSB, 0.1 mM Tris-HCl (pH 8.0), 0.1 mM dNTP, 10 mM MgCl2, 0.1 mg/mL BSA, 1 mM TCEP solution, and 0.02% Triton X-100. The DNA template mixture for the wild type protein contained either 100 μM dNTP, 1 μM dNTP, or 0.1 μM dNTP, designated in Table 2 as 100 μM, 1 μM, and 0.1 μM, respectfully.
Microplates with compounds (0.1 μL in each well) to be tested in the assay were prepared from 10 mM compound stocks in 100% DMSO, and equal amounts of DMSO without any compound were added to positive and negative control wells.
The protein mixture was dispensed (5 μL into each well) into compound plates and incubated at 37° C. for 15 minutes. After incubation, 5 μL of the DNA template mixture was dispensed into each well. The plates were then incubated at 37° C. for 2 hours.
During incubation, a combined stop buffer and detection reagent solution was prepared. The buffer contained 25 mM EDTA (pH 8.0), 0.02% Triton X-100, and SYBR Green I [Invitrogen] diluted 10,000× (for fluorescent readout). EDTA will stop the enzymatic reaction by chelating magnesium ions.

Compound	AC50 [µM]
Cc1cc(S(=O)(=O)Nc2cccc(C(=O)N3CCC[C@H]3C)c2)c(C)cc1Cl [Example 10, (R)-4-chloro-2,5-dimethyl-N-(3-(2-methylpyrrolidine-1-carbonyl)phenyl)benzenesulfonamide]	2
Cc1cc(S(=O)(=O)Nc2cccc(C(=O)NCc3ccccc3)c2)c(C)cc1Cl [Example 11, N-benzyl-3-((4-chloro-2,5-dimethylphenyl)sulfonamido)benzamide]	19
Cc1cc(S(=O)(=O)Nc2cc(F)cc(C(=O)N3CCC[C@H]3C)c2)c(C)cc1Cl [Example 13, (R)-4-chloro-N-(3-fluoro-5-(2-methylpyrrolidine-1-carbonyl)phenyl)-2,5-dimethylbenzenesulfonamide]	4
Cc1cc(S(=O)(=O)Nc2cccc(-c3ncc(C#N)s3)c2)c(C)cc1Cl [Example 96, 4-chloro-N-(3-(5-cyanothiazol-2-yl)phenyl)-2,5-dimethylbenzenesulfonamide]	2
Cc1cnc(-c2ccc(C)c(NS(=O)(=O)c3cc(C)c(Cl)cc3C)c2)s1 [Example 98, 4-chloro-2,5-dimethyl-N-(2-methyl-5-(5-methylthiazol-2-yl)phenyl)benzenesulfonamide]	> 100
Cc1cnc(-c2cc(NS(=O)(=O)c3cc(C)c(Cl)cc3C)ccc2C)s1 [Example 103, 4-chloro-2,5-dimethyl-N-(4-methyl-3-(5-methylthiazol-2-yl)phenyl)benzenesulfonamide]	> 100
